Results as given in patent publication US10385057B2, “Pyrazole compounds and methods of making and using same” (Lundbeck La Jolla Research Center, Inc., priority 2015, dated 2019).

Experiments:
FAAH = target: T1, FAAH (Mus musculus, UniProt O08914); assay: In vitro competitive activity-based protein profiling, mouse FAAH; assay type: biochemical; conditions: for inhibition at 1 µM: read-out: FAAH % inh. 1 μM (mouse)
T1 construct: mouse brain membrane fraction or cell lysates for mouse assays; from tissue
T1 sequence (O08914 1-579): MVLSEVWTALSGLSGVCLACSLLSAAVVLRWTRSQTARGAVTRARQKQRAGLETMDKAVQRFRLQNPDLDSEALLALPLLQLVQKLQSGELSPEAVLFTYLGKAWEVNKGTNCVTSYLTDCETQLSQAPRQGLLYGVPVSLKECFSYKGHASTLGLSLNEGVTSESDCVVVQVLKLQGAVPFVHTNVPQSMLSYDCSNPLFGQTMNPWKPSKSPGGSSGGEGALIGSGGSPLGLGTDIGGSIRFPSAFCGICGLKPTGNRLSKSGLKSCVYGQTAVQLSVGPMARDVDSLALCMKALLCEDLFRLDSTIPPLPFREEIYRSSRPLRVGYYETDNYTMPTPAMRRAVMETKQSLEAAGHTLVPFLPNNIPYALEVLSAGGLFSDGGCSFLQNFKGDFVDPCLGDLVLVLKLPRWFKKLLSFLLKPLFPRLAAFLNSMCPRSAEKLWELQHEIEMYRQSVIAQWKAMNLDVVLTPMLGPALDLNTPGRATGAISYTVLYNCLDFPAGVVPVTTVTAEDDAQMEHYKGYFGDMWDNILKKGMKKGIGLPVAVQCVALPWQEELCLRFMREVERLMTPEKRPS
Experimental: (§1) In Vitro Competitive Activity-Based Protein Profiling.
(§2) Proteomes (mouse brain membrane fraction or cell lysates for mouse assays; human prefrontal cortex or cell membrane fractions for human assays) (50 μL, 1.0 mg/mL total protein concentration) were preincubated with varying concentrations of inhibitors at 37° C. After 30 min, FP-Rh or HT-01 (1.0 μL, 50 μM in DMSO) was added and the mixture was incubated for another 30 min at 37° C. Reactions were quenched with SDS loading buffer (15 μL—4×) and run on SDS-PAGE. Following gel imaging, serine hydrolase activity was determined by measuring fluorescent intensity of gel bands corresponding to MAGL and FAAH using ImageJ 1.43u software.

MAGL = target: T2, MAGL (Mus musculus, UniProt O35678); assay: In vitro competitive activity-based protein profiling, mouse MAGL; assay type: biochemical; conditions: for inhibition at 1 µM: read-out: MAGL % inh. 1 μM (mouse)
T2 construct: mouse brain membrane fraction or cell lysates for mouse assays; from tissue
T2 sequence (O35678 1-303): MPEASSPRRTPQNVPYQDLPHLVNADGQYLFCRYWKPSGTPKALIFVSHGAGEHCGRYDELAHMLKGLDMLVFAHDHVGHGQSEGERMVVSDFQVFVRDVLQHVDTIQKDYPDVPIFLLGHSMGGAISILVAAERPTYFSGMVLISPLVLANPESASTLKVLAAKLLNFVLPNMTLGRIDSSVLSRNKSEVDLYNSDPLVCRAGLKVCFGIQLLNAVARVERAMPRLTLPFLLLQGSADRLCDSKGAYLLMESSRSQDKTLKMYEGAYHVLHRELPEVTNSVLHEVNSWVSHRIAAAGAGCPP
Experimental: as §1, §2

What does the source list for `CN(Cc1ccc(N2CCOCC2)cc1)[C@@H]1C[C@@H]2CN(C(=O)n3cc(Cl)cn3)C[C@@H]2C1` [Example 77, (4-chloro-1H-pyrazol-1-yl)(cis-5-(methyl(4-morpholinobenzyl)amino)hexahydrocyclopenta[c]pyrrol-2(1H)-yl)methanone]?
IC50 (FAAH): 100 to 1000 nM; inhibition at 1 µM (FAAH): ≥ 75%; IC50 (MAGL): 1000 to 10000 nM; inhibition at 1 µM (MAGL): 50 to 75%

For `O=C(N1CC2CN(Cc3cccc(F)c3)CC2C1)n1cc(C(F)(F)F)cn1` (stereo not drawn) [Example 150, (5-(3-fluorobenzyl)hexahydropyrrolo[3,4-c]pyrrol-2(1H)-yl)(4-(trifluoromethyl)-1H-pyrazol-1-yl)methanone], which IC50 (FAAH) is on record?
Its IC50 is at most 100 nM.

What about the inhibition at 1 µM (FAAH) of the same compound?
Its inhibition at 1 µM is at least 75%.

What about the IC50 (MAGL) of the same compound?
The IC50 was at most 100 nM.

And the inhibition at 1 µM (MAGL)?
The inhibition at 1 µM was at least 75%.

`CN(Cc1cccc(Cl)c1)[C@@H]1C[C@@H]2CN(C(=O)n3cc(Cl)cn3)C[C@@H]2C1` [Example 65, (4-chloro-1H-pyrazol-1-yl)(cis-5-((3-chlorobenzyl)(methyl)amino)hexahydrocyclopenta[c]pyrrol-2(1H)-yl)methanone] was tested. Which IC50 (FAAH) did it give?
The IC50 was at most 100 nM.

And the inhibition at 1 µM (FAAH)?
The inhibition at 1 µM was at least 75%.

What about the IC50 (MAGL) of the same compound?
The IC50 was at most 100 nM.

And the inhibition at 1 µM (MAGL)?
The inhibition at 1 µM was at least 75%.

`O=C(N1CC2CN(Cc3cccc(N4CCCC4)c3)CC2C1)n1cc(C(F)(F)F)cn1` (stereo not drawn) [Example 144, (5-(3-(pyrrolidin-1-yl)benzyl)hexahydropyrrolo[3,4-c]pyrrol-2(1H)-yl)(4-(trifluoromethyl)-1H-pyrazol-1-yl)methanone] was tested. Which IC50 (FAAH) did it give?
Its IC50 is at most 100 nM.

What about the inhibition at 1 µM (FAAH) of the same compound?
Its inhibition at 1 µM is at least 75%.

What about the IC50 (MAGL) of the same compound?
Its IC50 is at most 100 nM.

What about the inhibition at 1 µM (MAGL) of the same compound?
The inhibition at 1 µM was at least 75%.

With `CN(Cc1ccc(-c2nccs2)cc1C(F)(F)F)[C@@H]1C[C@@H]2CN(C(=O)n3cc(C(N)=O)cn3)C[C@@H]2C1` [Example 227, 1-(cis-5-(methyl(4-(thiazol-2-yl)-2-(trifluoromethyl)benzyl)amino)octahydrocyclopenta[c]pyrrole-2-carbonyl)-1H-pyrazole-4-carboxamide] as the compound, how does the inhibition at 1 µM (FAAH) read?
Its inhibition at 1 µM is at least 75%.

What about the inhibition at 1 µM (MAGL) of the same compound?
Its inhibition at 1 µM is at least 75%.

Which results are given for `Cc1cccc(CN2CC3CN(C(=O)n4cc(C(F)(F)F)cn4)CC3C2)c1` (stereo not drawn) [Example 141, (5-(3-methylbenzyl)hexahydropyrrolo[3,4-c]pyrrol-2(1H)-yl)(4-(trifluoromethyl)-1H-pyrazol-1-yl)methanone]?
IC50 (FAAH): ≤ 100 nM; inhibition at 1 µM (FAAH): ≥ 75%; IC50 (MAGL): ≤ 100 nM; inhibition at 1 µM (MAGL): ≥ 75%

How did the IC50 (FAAH) turn out when `O=C(N1CCC2(CCN(Cc3ccccc3Cl)C2)C1)n1cc(C(F)(F)F)cn1` (stereo not drawn) [Example 176, (7-(2-chlorobenzyl)-2,7-diazaspiro[4.4]nonan-2-yl)(4-(trifluoromethyl)-1H-pyrazol-1-yl)methanone] was run?
The IC50 was at most 100 nM.

And the inhibition at 1 µM (FAAH)?
Its inhibition at 1 µM is at least 75%.

And the IC50 (MAGL)?
Its IC50 is at most 100 nM.

And the inhibition at 1 µM (MAGL)?
Its inhibition at 1 µM is at least 75%.

For `CN(Cc1ccccc1C(F)(F)F)[C@@H]1C[C@@H]2CN(C(=O)n3cc(C(=O)N4CCOCC4)cn3)C[C@@H]2C1` [Example 93, (cis-5-(methyl(2-(trifluoromethyl)benzyl)amino)hexahydrocyclopenta[c]pyrrol-2(1H)-yl)(4-(morpholine-4-carbonyl)-1H-pyrazol-1-yl)methanone], which inhibition at 1 µM (FAAH) is on record?
The inhibition at 1 µM was at least 75%.

And the inhibition at 1 µM (MAGL)?
Its inhibition at 1 µM is 50 to 75%.

How did the IC50 (FAAH) turn out when `CNC(=O)c1cnn(C(=O)N2CC3CN(Cc4ccc(Cl)cc4)CC3C2)c1` (stereo not drawn) [Example 17, 1-(5-(4-chlorobenzyl)octahydropyrrolo[3,4-c]pyrrole-2-carbonyl)-N-methyl-1H-pyrazole-4-carboxamide] was run?
Its IC50 is at most 100 nM.

And the inhibition at 1 µM (FAAH)?
The inhibition at 1 µM was at least 75%.

What about the IC50 (MAGL) of the same compound?
Its IC50 is 1000 to 10000 nM.

And the inhibition at 1 µM (MAGL)?
The inhibition at 1 µM was 50 to 75%.

How did the inhibition at 1 µM (FAAH) turn out when `O=C(O)c1cnn(C(=O)N2CC3CN(Cc4cccc(Oc5ccccc5)c4)CC3C2)c1` (stereo not drawn) [Example 187, 1-(5-(3-phenoxybenzyl)octahydropyrrolo[3,4-c]pyrrole-2-carbonyl)-1H-pyrazole-4-carboxylic acid] was run?
The inhibition at 1 µM was at least 75%.

What about the inhibition at 1 µM (MAGL) of the same compound?
The inhibition at 1 µM was 50 to 75%.

Which inhibition at 1 µM (FAAH) does the source give for `NC(=O)c1cnn(C(=O)N2CCC3(CCN(Cc4cc(N5CCCC5)ccc4C(F)(F)F)C3)C2)c1` (stereo not drawn) [Example 213, 1-(7-(5-(pyrrolidin-1-yl)-2-(trifluoromethyl)benzyl)-2,7-diazaspiro[4.4]nonane-2-carbonyl)-1H-pyrazole-4-carboxamide] here?
Its inhibition at 1 µM is 50 to 75%.

And the inhibition at 1 µM (MAGL)?
Its inhibition at 1 µM is at least 75%.

What does the source list for `CC(=O)N(Cc1cccc(Cl)c1)[C@H]1C[C@@H]2CN(C(=O)n3cc(Cl)cn3)C[C@@H]2C1` [Example 74, N-(trans-2-(4-chloro-1H-pyrazole-1-carbonyl)octahydrocyclopenta[c]pyrrol-5-yl)-N-(3-chlorobenzyl)acetamide]?
inhibition at 1 µM (FAAH): ≥ 75%; inhibition at 1 µM (MAGL): ≥ 75%

Which results are given for `CN(Cc1ccc(C(F)(F)F)cc1)[C@H]1C[C@@H]2CN(C(=O)n3cc(C(=O)N4CCN(C5CC5)CC4)cn3)C[C@@H]2C1` [Example 186, (4-cyclopropylpiperazin-1-yl)(1-(trans-5-(methyl(4-(trifluoromethyl)benzyl)amino)octahydrocyclopenta[c]pyrrole-2-carbonyl)-1H-pyrazol-4-yl)methanone]?
inhibition at 1 µM (FAAH): ≥ 75%; inhibition at 1 µM (MAGL): ≥ 75%

For `CN(Cc1cc(Cl)ccc1C(F)(F)F)[C@@H]1C[C@@H]2CN(C(=O)n3cc(C(N)=O)cn3)C[C@@H]2C1` [Example 219, 1-(cis-5-((5-chloro-2-(trifluoromethyl)benzyl)(methyl)amino)octahydrocyclopenta[c]pyrrole-2-carbonyl)-1H-pyrazole-4-carboxamide], which inhibition at 1 µM (FAAH) is on record?
The inhibition at 1 µM was at least 75%.

And the inhibition at 1 µM (MAGL)?
The inhibition at 1 µM was at least 75%.

Which results are given for `NC(=O)c1cnn(C(=O)N2CC[C@@]3(CCN(Cc4ccc(N5CCOCC5)cc4C(F)(F)F)C3)C2)c1` [Example 194, (R)-1-(7-(4-morpholino-2-(trifluoromethyl)benzyl)-2,7-diazaspiro[4.4]nonane-2-carbonyl)-1H-pyrazole-4-carboxamide]?
inhibition at 1 µM (FAAH): ≥ 75%; inhibition at 1 µM (MAGL): ≥ 75%

Which results are given for `O=C(N1C[C@H]2C[C@@H](NCc3cccc(Cl)c3)C[C@H]2C1)n1cc(Cl)cn1` [Example 66, (4-chloro-1H-pyrazol-1-yl)(cis-5-((3-chlorobenzyl)amino)hexahydrocyclopenta[c]pyrrol-2(1H)-yl)methanone]?
IC50 (FAAH): ≤ 100 nM; inhibition at 1 µM (FAAH): ≥ 75%; IC50 (MAGL): 100 to 1000 nM; inhibition at 1 µM (MAGL): ≥ 75%

`O=C(N1CCC2(CCN(Cc3ccc(CN4CCOCC4)cc3)C2)C1)n1cc(Cl)cn1` (stereo not drawn) [Example 129, (4-chloro-1H-pyrazol-1-yl)(7-(4-(morpholinomethyl)benzyl)-2,7-diazaspiro[4.4]nonan-2-yl)methanone] was tested. Which inhibition at 1 µM (FAAH) did it give?
The inhibition at 1 µM was 50 to 75%.

And the inhibition at 1 µM (MAGL)?
The inhibition at 1 µM was 25 to 50%.

With `CN(Cc1cccc(C(F)(F)F)c1)[C@H]1C[C@@H]2CN(C(=O)n3cc(Cl)cn3)C[C@@H]2C1` [Example 83, (4-chloro-1H-pyrazol-1-yl)(trans-5-(methyl(3-(trifluoromethyl)benzyl)amino)hexahydrocyclopenta[c]pyrrol-2(1H)-yl)methanone] as the compound, how does the IC50 (FAAH) read?
Its IC50 is at most 100 nM.

And the inhibition at 1 µM (FAAH)?
Its inhibition at 1 µM is at least 75%.

And the IC50 (MAGL)?
Its IC50 is at most 100 nM.

And the inhibition at 1 µM (MAGL)?
The inhibition at 1 µM was at least 75%.

What does the source list for `CC(=O)N1CCN(c2cc(Cl)ccc2CN2CC3CN(C(=O)n4cc(Cl)cn4)CC3C2)CC1` (stereo not drawn) [Example 102, 1-(4-(5-chloro-2-((5-(4-chloro-1H-pyrazole-1-carbonyl)hexahydropyrrolo[3,4-c]pyrrol-2(1H)-yl)methyl)phenyl)piperazin-1-yl)ethan-1-one]?
inhibition at 1 µM (FAAH): ≥ 75%; inhibition at 1 µM (MAGL): ≥ 75%

`O=C(c1cnn(C(=O)N2CCC3(CCN(Cc4ccc(N5CCOCC5)cc4C(F)(F)F)C3)C2)c1)N1CCN(C2CC2)CC1` (stereo not drawn) [Example 52, (4-cyclopropylpiperazin-1-yl)(1-(7-(4-morpholino-2-(trifluoromethyl)benzyl)-2,7-diazaspiro[4.4]nonane-2-carbonyl)-1H-pyrazol-4-yl)methanone] was tested. Which inhibition at 1 µM (FAAH) did it give?
The inhibition at 1 µM was at least 75%.

And the inhibition at 1 µM (MAGL)?
The inhibition at 1 µM was at least 75%.

How did the IC50 (FAAH) turn out when `O=C(N1CCC2(CCN(Cc3ccc(Cl)c(Cl)c3)C2)C1)n1cc(Cl)cn1` (single isomer, unassigned) [Example 140, (4-chloro-1H-pyrazol-1-yl)(7-(3,4-dichlorobenzyl)-2,7-diazaspiro[4.4]nonan-2-yl)methanone] was run?
Its IC50 is at most 100 nM.

And the IC50 (MAGL)?
Its IC50 is at most 100 nM.
